For the assay, the target named is T1, recombinant human plasminogen activator inhibitor-1 (PAI-1) (Homo sapiens, UniProt P05121).
T1 construct: purchased Molecular Innovations, Royal Oak, Mich
Kind of assay: Primary Screen for PAI-1 Inhibition (chromogenic tPA activity assay). The format is biochemical. The note with it: 140 nM PAI-1, 70 nM tPA, pH 6.6. How it is done:
Primary Screen for PAI-1 Inhibition
The ability of the compounds of this invention to inhibit Plasminogen Activator Inhibitor-1 was established by the following experimental procedure:
Test compounds were dissolved in DMSO at a final concentration of 10 mM, then diluted […] in physiologic buffer. The inhibitory assay was initiated by the addition of the test compound (1-100 μM final concentration, maximum DMSO concentration of 0.2%) in a pH 6.6 buffer containing 140 nM recombinant human plasminogen activator inhibitor-1 (PAI-1; Molecular Innovations, Royal Oak, Mich.). Following a 1 hour incubation at room temperature, 70 nM of recombinant human tissue plasminogen activator (tPA) was added, and the combination of the test compound, PAI-1 and tPA was incubated for an additional 30 minutes. Following the second incubation, Spectrozyme-tPA (American Diagnostica, Greenwich, Conn.), a chromogenic substrate for tPA, was added and absorbance read at 405 nm at 0 and 60 minutes. Relative PAI-1 inhibition is equal to the residual tPA activity in the presence of the test compound and PAI-1. Control treatments include the complete inhibition of tPA by PAI-1 at the molar ratio employed (2:1), and the absence of any effect of the test compound on tPA alone.

Structures are written as SMILES.

T1 sequence (P05121 24-402): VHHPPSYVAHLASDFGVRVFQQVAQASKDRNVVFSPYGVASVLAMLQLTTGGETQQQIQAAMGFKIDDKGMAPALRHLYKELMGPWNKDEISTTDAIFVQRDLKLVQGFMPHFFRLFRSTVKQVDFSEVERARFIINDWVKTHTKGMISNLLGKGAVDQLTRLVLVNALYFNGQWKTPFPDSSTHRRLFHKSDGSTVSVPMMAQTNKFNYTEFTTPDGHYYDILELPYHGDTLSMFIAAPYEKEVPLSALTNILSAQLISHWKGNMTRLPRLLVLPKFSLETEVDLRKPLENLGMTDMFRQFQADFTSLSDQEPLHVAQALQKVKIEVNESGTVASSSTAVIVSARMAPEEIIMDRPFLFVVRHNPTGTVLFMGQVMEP

`CC(C)(C)c1ccc(Cn2ccc3cc(NS(=O)(=O)c4cccc(C(=O)O)c4)ccc32)cc1` [Example 1, 3-({[1-(4-tert-butylbenzyl)-1H-indol-5-yl]amino}sulfonyl)benzoic acid]: the inhibition at 25 µM lay in the range of 6 to 78%.
For `COC(=O)CN(c1ccc2c(ccn2Cc2ccc(C(C)(C)C)cc2)c1)S(=O)(=O)c1ccccc1` [Example 2, {Benzenesulfonyl-[1-(4-tert-butyl-benzyl)-1H-indol-5-yl]-amino}-acetic acid methyl ester] the value was 6 to 78%.
For `CC(C)(C)c1ccc(Cn2ccc3cc(N(Cc4ccc(C(=O)O)cc4)S(=O)(=O)c4ccccc4)ccc32)cc1` [Example 3, 4-{[[1-(4-tert-Butylbenzyl)-1H-indol-5-yl](phenylsulfonyl)amino]methyl}benzoic acid] the value was 6 to 78%; for `CC(C)(C)c1ccc(Cn2ccc3cc(NS(=O)(=O)c4ccc(C(=O)O)cc4)ccc32)cc1` [Example 4, 4-({[1-(4-tert-butylbenzyl)-1H-indol-5-yl]amino}sulfonyl)benzoic acid], 6 to 78%.
For `CC(C)(C)c1ccc(Cn2ccc3cc(NC(=O)N[C@@H](Cc4ccccc4)C(=O)O)ccc32)cc1` [Example 5, N-({[1-(4-tert-Butylbenzyl)-1H-indol-5-yl]amino}carbonyl)-L-phenylalanine], the inhibition at 25 µM is 6 to 78%.
As to `CC(C)(C)c1ccc(Cn2ccc3cc(NC(=O)Nc4cccc(C(=O)O)c4)ccc32)cc1` [Example 6, 3-[({[1-(4-tert-Butylbenzyl)-1H-indol-5-yl]amino}carbonyl)amino]benzoic acid], the inhibition at 25 µM fell in the range of 6 to 78%.
For `O=C(O)COc1ccc(Cn2ccc3cc(NS(=O)(=O)c4ccc(-c5ccccc5)cc4)ccc32)cc1` [Example 7, [4-({5-[(1,1′-Biphenyl-4-ylsulfonyl)amino]-1H-indol-1-yl}methyl)phenoxy]acetic acid] the value was 6 to 78%; for `CC(C)(C)c1ccc(S(=O)(=O)Nc2ccc3c(ccn3Cc3ccc(OCC(=O)O)cc3)c2)cc1` [Example 8, {4-[(5-{[(4-tert-Butylphenyl)sulfonyl]amino}-1H-indol-1-yl)methyl]phenoxy}acetic acid], 6 to 78%; for `O=C(O)C(Cc1ccccc1)n1ccc2cc(NS(=O)(=O)c3ccc(OC(F)(F)F)cc3)ccc21` (stereo not drawn) [Example 9, 3-Phenyl-2-[5-({[4-(trifluoromethoxy)phenyl]sulfonyl}amino)-1H-indol-1-yl]propanoic acid], 6 to 78%.
Then `O=C(N[C@@H](Cc1ccccc1)C(=O)O)c1ccc(Cn2ccc3cc(NS(=O)(=O)c4ccccc4)ccc32)cc1` [Example 10, N-[4-({5-[(Phenylsulfonyl)amino]-1H-indol-1-yl}methyl)benzoyl]-L-phenylalanine], with 6 to 78%.
Take `O=C(N[C@@H](Cc1ccccc1)C(=O)O)c1ccc(Cn2ccc3cc(NS(=O)(=O)c4ccc(OC(F)(F)F)cc4)ccc32)cc1` [Example 11, N-(4-{[5-({[4-(Trifluoromethoxy)phenyl]sulfonyl}amino)-1H-indol-1-yl]methyl}benzoyl)-L-phenylalanine]: the inhibition at 25 µM lay in the range of 6 to 78%.
Consider `O=C(N[C@@H](Cc1ccccc1)C(=O)O)c1ccc(Cn2ccc3cc(NS(=O)(=O)c4ccc(-c5ccccc5)cc4)ccc32)cc1` [Example 12, N-[4-({5-[(1,1′-Biphenyl-4-ylsulfonyl)amino]-1H-indol-1-yl}methyl)benzoyl]-L-phenylalanine], for which the inhibition at 25 µM fell in the range of 6 to 78%.
With `CC(C)(C)c1ccc(S(=O)(=O)Nc2ccc3c(ccn3Cc3ccc(C(=O)N[C@@H](Cc4ccccc4)C(=O)O)cc3)c2)cc1` [Example 13, N-{4-[(5-{[(4-tert-Butylphenyl)sulfonyl]amino}-1H-indol-1-yl)methyl]benzoyl}-L-phenylalanine], the inhibition at 25 µM lay in the range of 6 to 78%.
In the case of `O=C(O)CCNC(=O)c1ccc(Cn2ccc3cc(NS(=O)(=O)c4ccc(OC(F)(F)F)cc4)ccc32)cc1` [Example 14, N-(4-{[5-({[4-(Trifluoromethoxy)phenyl]sulfonyl}amino)-1H-indol-1-yl]methyl}benzoyl)-β-alanine], the inhibition at 25 µM lay in the range of 6 to 78%.
With `O=C(O)CCNC(=O)c1ccc(Cn2ccc3cc(NS(=O)(=O)c4ccc(-c5ccccc5)cc4)ccc32)cc1` [Example 15, N-[4-({5-[(1,1′-Biphenyl-4-ylsulfonyl)amino]-1H-indol-1-yl}methyl)benzoyl]-β-alanine], the inhibition at 25 µM was 6 to 78%.
As for `CC(C)(C)c1ccc(S(=O)(=O)Nc2ccc3c(ccn3Cc3ccc(C(=O)NCCC(=O)O)cc3)c2)cc1` [Example 16, N-{4-[(5-{[(4-tert-Butylphenyl)sulfonyl]amino}-1H-indol-1-yl)methyl]benzoyl}-β-alanine], the inhibition at 25 µM was in the range of 6 to 78%.
Then `O=C(O)C1CCN(C(=O)c2ccc(Cn3ccc4cc(NS(=O)(=O)c5ccc(Cl)c(Cl)c5)ccc43)cc2)CC1` [Example 17, 1-{4-[(5-{[(3,4-Dichlorophenyl)sulfonyl]amino}-1H-indol-1 yl)methyl]benzoyl}piperidine-4-carboxylic acid], with 6 to 78%; and `O=C(O)C1CCN(C(=O)c2ccc(Cn3ccc4cc(NS(=O)(=O)c5ccc(-c6ccccc6)cc5)ccc43)cc2)CC1` [Example 18, 1-[4-({5-[(1,1′-Biphenyl-4-ylsulfonyl)amino]-1H-indol-1-yl}methyl)benzoyl]piperidine-4-carboxylic acid], with 6 to 78%; and `CC(C)(C)c1ccc(S(=O)(=O)Nc2ccc3c(ccn3Cc3ccc(C(=O)N4CCC(C(=O)O)CC4)cc3)c2)cc1` [Example 19, 1-{4-[(5-{[(4-tert-Butylphenyl)sulfonyl]amino}-1H-indol-1-yl)methyl]benzoyl}piperidine-4-carboxylic acid], with 6 to 78%.
Then `O=C(O)Cn1ccc2cc(NS(=O)(=O)c3ccc(-c4ccccc4)cc3)ccc21` [Example 20, {5-[(1,1′-Biphenyl-4-ylsulfonyl)amino]-1H-indol-1-yl}acetic acid], with 6 to 78%; and `O=C(Cn1ccc2cc(NS(=O)(=O)c3ccc(-c4ccccc4)cc3)ccc21)N[C@@H](Cc1ccccc1)C(=O)O` [Example 21, N-({5-[(1,1′-Biphenyl-4-ylsulfonyl)amino]-1H-indol-1-yl}acetyl)-L-phenylalanine], with 6 to 78%; and `CC(C)(C)c1ccc(S(=O)(=O)Nc2ccc3c(ccn3CC(=O)N[C@@H](Cc3ccccc3)C(=O)O)c2)cc1` [Example 22, N-[(5-{[(4-tert-Butylphenyl)sulfonyl]amino}-1H-indol-1-yl)acetyl]-L-phenylalanine], with 6 to 78%.
Then `CC(C)C[C@H](NC(=O)Cn1ccc2cc(NS(=O)(=O)c3ccc(-c4ccccc4)cc3)ccc21)C(=O)O` [Example 23, N-({5-[(1,1′-biphenyl-4-ylsulfonyl)amino]-1H-indol-1-yl}acetyl)-L-leucine], with 6 to 78%.
For `CC(C)C[C@H](NC(=O)Cn1ccc2cc(NS(=O)(=O)c3ccc(C(C)(C)C)cc3)ccc21)C(=O)O` [Example 24, N-[(5-{[(4-tert-butylphenyl)sulfonyl]amino}-1H-indol-1-yl)acetyl]-L-leucine], the inhibition at 25 µM was in the range of 6 to 78%.

These data come from patent publication US7683091B2, “Substituted indoles and methods of their use” (Wyeth, priority 2005, dated 2010).
